# How the values were obtained:
# Assay type in all cases: binding
# DCAF15-DDB1(ΔBPB)-DDA1 = DCAF15-DDB1(ΔBPB)-DDA1 (Homo sapiens, UniProt Q66K64); experiment: isothermal titration calorimetry
# RBM39(Δ150) = target: T1, RBM39(Δ150) (Homo sapiens, UniProt Q14498); experiment: isothermal titration calorimetry
# T1 sequence (Q14498 151-530): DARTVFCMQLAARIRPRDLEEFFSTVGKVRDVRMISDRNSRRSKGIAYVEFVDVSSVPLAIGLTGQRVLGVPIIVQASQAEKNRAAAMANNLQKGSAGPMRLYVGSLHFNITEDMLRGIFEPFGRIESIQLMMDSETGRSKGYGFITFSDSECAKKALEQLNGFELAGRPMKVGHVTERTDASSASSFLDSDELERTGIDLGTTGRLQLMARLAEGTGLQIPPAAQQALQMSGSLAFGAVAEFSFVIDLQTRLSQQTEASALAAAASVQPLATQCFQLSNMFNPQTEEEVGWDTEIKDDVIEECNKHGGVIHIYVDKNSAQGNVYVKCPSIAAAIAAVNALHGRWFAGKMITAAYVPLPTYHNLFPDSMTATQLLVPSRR
# [1] = target: DCAF15-DDB1-DDA1 with RBM39(Δ150) (Homo sapiens, UniProt Q14498+Q66K64); experiment: TR-FRET ternary complex recruitment assay
# [2] = target: DCAF15-DDB1(ΔBPB)-DDA1 and RBM39(Δ150) mixture (Homo sapiens, UniProt Q14498+Q66K64); experiment: isothermal titration calorimetry
EC50 [1] [µM],Compound,further results
3.4,NS(=O)(=O)c1ccc(S(=O)(=O)Nc2cccc3c(Cl)c[nH]c23)cc1 [Indisulam],Kd (DCAF15-DDB1(ΔBPB)-DDA1): ~17 µM; Kd (RBM39(Δ150)): > 50 µM; Kd [2]: 0.187 µM
14.3,"Cc1c[nH]c2c(NS(=O)(=O)c3ccc(S(N)(=O)=O)cc3)cccc12 [compound 1, N-(3-methyl-1H-indol-7-yl)benzene-1,4-disulfonamide]",–
1.21,"N#Cc1c[nH]c2c(NS(=O)(=O)c3ccc(S(N)(=O)=O)cc3)cccc12 [compound 2, N-(3-cyano-1H-indol-7-yl)benzene-1,4-disulfonamide]",–
> 50,"NS(=O)(=O)c1ccc(S(=O)(=O)Nc2cccc3cc[nH]c23)cc1 [compound 3, N-(1H-indol-7-yl)benzene-1,4-disulfonamide]",–
12.3,"Cc1c[nH]c2c(NS(=O)(=O)c3ccc(S(=O)(=O)N(C)C)cc3)cccc12 [compound 4, N^1,N^1-dimethyl-N^4-(3-methyl-1H-indol-7-yl)benzene-1,4-disulfonamide]",–
38.1,"O=S(=O)(Nc1cccc2c(Cl)c[nH]c12)c1ccccc1 [compound 5, N-(3-chloro-1H-indol-7-yl)benzenesulfonamide]",–
3.82,"Cc1ccc(NS(=O)(=O)c2ccc(N)cc2)c2[nH]cc(C#N)c12 [compound 6, Compound 6]",–
2.38,"Cc1ccc(NS(=O)(=O)c2ccc(CN)cc2)c2[nH]cc(C#N)c12 [compound 7, 4-(aminomethyl)-N-(3-cyano-4-methyl-1H-indol-7-yl)benzenesulfonamide]",–
